What was measured:
[1] = molecular target: T1, DPP-IV (Homo sapiens, UniProt P27487); test: DPP-IV assay with extract of Caco-2 cells as DPP IV source (AFC substrate, fluorescence); type: biochemical; details: extract of human colon carcinoma cell line Caco-2; substrate 100 μM; 60 minutes at ambient temperature; read-out: DPP IV inhibition IC50
T1 construct: an extract of the human colon carcinoma cell line Caco-2 is used as the DPP IV source; endogenous in cells; host or cells: Caco-2 (human colon carcinoma), differentiated to induce DPP-IV expression; Nonidet-P40 solubilised extract
Procedure: The differentiation of the cells in order to induce the DPP-IV expression was carried out in accordance with the description by Reiher et al. in an article entitled “Increased expression of intestinal cell line Caco-2”, which appeared in Proc. Natl. Acad. Sci. Vol. 90, pp. 5757-5761 (1993). The cell extract was obtained from cells solubilised in a buffer (10 mM Tris HCl, 0.15 M NaCl, 0.04 t.i.u. aprotinin, 0.5% Nonidet-P40, pH 8.0) by centrifugation at 35,000 g for 30 minutes at 4° C. (to remove cell debris).
The DPP-IV assay was carried out as follows:
50 μl of substrate solution (AFC; AFC is amido-4-trifluoromethylcoumarin), final concentration 100 μM, were placed in black microtitre plates. 20 μl of assay buffer (final concentrations 50 mM Tris HCl pH 7.8, 50 mM NaCl, 1% DMSO) was pipetted in. The reaction was started by the addition of 30 μl of solubilised Caco-2 protein (final concentration 0.14 μg of protein per well). The test substances under investigation were typically added prediluted to 20 μl, while the volume of assay buffer was then reduced accordingly. […] Then the fluorescence was measured in a Victor 1420 Multilabel Counter, with the excitation wavelength at 405 nm and the emission wavelength at 535 nm. […] The potency of the test substances in question, expressed as IC50 values, were calculated from dosage/activity curves consisting of 11 measured points in each case.

[2] = tested on: rats; test: Tolerability in rats after oral administration; type: in vivo; details: oral administration of 10 mg/kg

T1 sequence (P27487 whole entry): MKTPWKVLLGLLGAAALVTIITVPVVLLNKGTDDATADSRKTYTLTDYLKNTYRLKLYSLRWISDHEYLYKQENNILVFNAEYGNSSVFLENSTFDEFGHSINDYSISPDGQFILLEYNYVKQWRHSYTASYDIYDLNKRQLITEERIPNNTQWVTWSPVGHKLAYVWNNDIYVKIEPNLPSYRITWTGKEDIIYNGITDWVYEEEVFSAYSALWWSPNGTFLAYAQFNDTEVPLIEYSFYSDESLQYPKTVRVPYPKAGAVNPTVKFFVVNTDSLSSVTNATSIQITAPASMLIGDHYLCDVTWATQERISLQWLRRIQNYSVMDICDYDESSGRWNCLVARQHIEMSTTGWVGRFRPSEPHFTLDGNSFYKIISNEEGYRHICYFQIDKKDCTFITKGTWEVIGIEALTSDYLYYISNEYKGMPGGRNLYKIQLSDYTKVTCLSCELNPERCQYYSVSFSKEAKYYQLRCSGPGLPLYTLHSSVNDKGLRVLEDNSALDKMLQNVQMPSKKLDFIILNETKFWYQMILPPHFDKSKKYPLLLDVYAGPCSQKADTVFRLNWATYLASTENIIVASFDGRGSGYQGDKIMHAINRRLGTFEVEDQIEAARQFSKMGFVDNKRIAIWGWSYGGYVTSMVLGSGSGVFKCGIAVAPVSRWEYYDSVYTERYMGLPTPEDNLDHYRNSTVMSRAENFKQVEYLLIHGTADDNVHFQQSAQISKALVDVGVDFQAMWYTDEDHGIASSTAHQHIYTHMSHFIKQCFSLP

Structure (SMILES)	IC50 [1] [nM]	toxic side effects [2]
CC#CCn1c(N2CCC[C@@H](N)C2)nc2c1c(=O)n(Cc1nc(C)c3ccccc3n1)c(=O)n2CC(=O)OCC [1(3), (R)-1-(4-methyl-quinazolin-2-ylmethyl)-3-(ethoxycarbonylmethyl)-7-(but-2-ynyl)-8-(3-amino-piperidin-1-yl)-xanthine]	3	–
CC#CCn1c(N2CCC[C@@H](N)C2)nc2c1c(=O)n(Cc1nc(C)c3ccccc3n1)c(=O)n2CC(=O)OC [Example 1(2), (R)-1-(4-methyl-quinazolin-2-ylmethyl)-3-(methoxycarbonylmethyl)-7-(but-2-ynyl)-8-(3-amino-piperidin-1-yl)-xanthine]	3	no toxic side effects could be detected

— patent US7495003B2, “8-(3-amino-piperidin-1-yl)-7-(but-2-ynyl)-xanthines, the preparation thereof and their use as pharmaceutical compositions” (Boehringer Ingelheim International GmbH, priority 2004, dated 2009)
